Experiments:
[1] = target: T1, human liver microsomes (HLM) (Homo sapiens, UniProt P11712); assay: CYP reaction phenotyping using HLM and chemical inhibitors (% remaining); format: in vitro ADME; details: human, microsomes, 5 μM, pH 7.4
T1 construct: from tissue; host or cells: pooled human liver microsomes
Text: (§1) % Remaining of TA=100×At/A0
(§2) Where, At and A0 are the peak area ratio of TA to IS at time t and at time zero, respectively.

[2] = test system: human liver microsomes (HLM); assay: as above; format: in vitro ADME; details: human, microsomes, 5 μM, pH 7.4
Text: as §1, §2

[3] = Relevant concentrations of TUDCA and PB for in vitro transporter assessment ([I]1, [I]2, Iin,max); details: for Plasma Cmax (total [I]1): component of AMX0035; for [I]2: estimated, highest oral dose TUDCA 1000 mg, PB 3000 mg; for Unbound Cmax (Unbound [I]1) / Unbound [I]in, max: projected
[4] = target: T2, BCRP (Homo sapiens, UniProt Q9UNQ0); assay: BCRP IC50 assessment, bidirectional cladribine transport in C2BBe1 cells
T2 sequence (Q9UNQ0 1-655): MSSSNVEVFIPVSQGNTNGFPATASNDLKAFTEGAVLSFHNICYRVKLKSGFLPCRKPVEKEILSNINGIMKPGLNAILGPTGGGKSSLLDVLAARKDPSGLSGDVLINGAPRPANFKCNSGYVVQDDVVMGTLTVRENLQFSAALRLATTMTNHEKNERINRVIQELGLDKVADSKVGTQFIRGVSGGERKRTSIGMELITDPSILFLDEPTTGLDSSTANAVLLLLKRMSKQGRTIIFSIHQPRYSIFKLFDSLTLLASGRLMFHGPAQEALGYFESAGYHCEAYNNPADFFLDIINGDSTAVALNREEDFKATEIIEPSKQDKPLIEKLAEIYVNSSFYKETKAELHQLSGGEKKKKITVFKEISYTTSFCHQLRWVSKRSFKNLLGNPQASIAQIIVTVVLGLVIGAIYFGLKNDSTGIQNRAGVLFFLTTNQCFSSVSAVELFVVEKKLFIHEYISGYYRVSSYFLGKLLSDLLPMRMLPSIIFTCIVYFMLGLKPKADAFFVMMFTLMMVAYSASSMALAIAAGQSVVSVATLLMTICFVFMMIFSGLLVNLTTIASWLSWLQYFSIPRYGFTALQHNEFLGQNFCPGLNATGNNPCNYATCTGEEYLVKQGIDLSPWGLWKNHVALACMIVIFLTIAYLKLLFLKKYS
Experimental: After 30 minutes, the pre-incubation solution was aspirated.

[5] = target: T3, OATP1B3 (Homo sapiens, UniProt Q9NPD5)
T3 sequence (Q9NPD5 1-702): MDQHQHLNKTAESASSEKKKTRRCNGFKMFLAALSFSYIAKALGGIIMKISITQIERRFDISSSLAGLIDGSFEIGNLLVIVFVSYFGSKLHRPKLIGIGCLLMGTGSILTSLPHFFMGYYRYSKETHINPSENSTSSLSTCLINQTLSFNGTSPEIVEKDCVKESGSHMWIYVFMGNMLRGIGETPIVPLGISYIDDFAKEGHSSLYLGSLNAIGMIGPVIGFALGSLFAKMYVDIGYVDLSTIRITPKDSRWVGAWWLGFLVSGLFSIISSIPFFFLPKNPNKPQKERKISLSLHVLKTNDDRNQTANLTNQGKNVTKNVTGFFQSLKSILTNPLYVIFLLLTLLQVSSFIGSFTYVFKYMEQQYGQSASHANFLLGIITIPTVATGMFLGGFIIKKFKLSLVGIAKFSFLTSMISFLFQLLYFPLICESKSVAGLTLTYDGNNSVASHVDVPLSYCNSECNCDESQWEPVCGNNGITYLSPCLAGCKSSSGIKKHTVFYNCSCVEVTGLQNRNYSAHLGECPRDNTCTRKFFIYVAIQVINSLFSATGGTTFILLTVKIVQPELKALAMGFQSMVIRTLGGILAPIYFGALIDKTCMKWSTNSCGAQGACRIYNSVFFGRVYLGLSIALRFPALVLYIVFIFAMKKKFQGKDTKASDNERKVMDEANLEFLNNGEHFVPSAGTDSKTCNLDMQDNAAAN

[6] = target: MATE2K (Homo sapiens, UniProt Q86VL8)
MATE2K, sequence (Q86VL8 1-566 isoform Q86VL8-3): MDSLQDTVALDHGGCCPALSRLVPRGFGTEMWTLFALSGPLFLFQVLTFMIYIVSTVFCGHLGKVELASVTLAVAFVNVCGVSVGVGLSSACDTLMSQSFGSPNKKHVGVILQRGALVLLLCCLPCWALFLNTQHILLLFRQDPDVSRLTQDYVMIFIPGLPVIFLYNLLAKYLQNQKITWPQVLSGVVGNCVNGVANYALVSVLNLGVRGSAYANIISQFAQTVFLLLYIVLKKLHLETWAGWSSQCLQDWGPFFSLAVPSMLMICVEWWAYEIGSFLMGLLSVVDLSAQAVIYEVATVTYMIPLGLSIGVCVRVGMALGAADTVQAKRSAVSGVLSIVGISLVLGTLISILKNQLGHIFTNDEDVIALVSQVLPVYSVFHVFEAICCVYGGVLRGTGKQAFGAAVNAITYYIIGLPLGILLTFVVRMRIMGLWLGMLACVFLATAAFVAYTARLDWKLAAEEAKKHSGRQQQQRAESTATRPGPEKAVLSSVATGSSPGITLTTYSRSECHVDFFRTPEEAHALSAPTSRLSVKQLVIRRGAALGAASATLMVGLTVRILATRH

[7] = in vivo; details: male, CD (Sprague-Dawley) IGS, rat; for Cmax: po, 840 mg/kg, Cmax plasma level
[8] = test system: P-gp and BCRP; assay: in vitro; details: human
Experimental: The P-gp and BCRP substrate assessment was conducted in C2BBe1 cell monolayers. […] LY was co-dosed with each dosing solution at a nominal concentration of 200 μM.
The cell culture medium was aspirated, and the cell monolayers were rinsed once with HBSSg_7.4. […] For receiver samples, aliquots (300 μL) were taken at pre-selected time points. […] For donor samples, aliquots (50 μL) were taken at pre-selected time points without replacement.

[9] = CYP reaction phenotyping: CYP control (negative control without CYP enzymes); details: CYP Control (without CYP enzymes) 0.1 mg protein/mL, TA 5 μM
Experimental: The reaction was initiated by the addition of NADPH, followed by incubation at 37° C.

[10] = Caco-2, pH 7.4, AP-to-BL Papp of TUDCA
[11] = Caco-2, pH 7.4, AP-to-BL Recovery of TUDCA
[12] = Caco-2, pH 7.4, BL-to-AP Papp of TUDCA
[13] = Caco-2, pH 7.4, BL-to-AP Recovery of TUDCA

T1 sequence (P11712 whole entry): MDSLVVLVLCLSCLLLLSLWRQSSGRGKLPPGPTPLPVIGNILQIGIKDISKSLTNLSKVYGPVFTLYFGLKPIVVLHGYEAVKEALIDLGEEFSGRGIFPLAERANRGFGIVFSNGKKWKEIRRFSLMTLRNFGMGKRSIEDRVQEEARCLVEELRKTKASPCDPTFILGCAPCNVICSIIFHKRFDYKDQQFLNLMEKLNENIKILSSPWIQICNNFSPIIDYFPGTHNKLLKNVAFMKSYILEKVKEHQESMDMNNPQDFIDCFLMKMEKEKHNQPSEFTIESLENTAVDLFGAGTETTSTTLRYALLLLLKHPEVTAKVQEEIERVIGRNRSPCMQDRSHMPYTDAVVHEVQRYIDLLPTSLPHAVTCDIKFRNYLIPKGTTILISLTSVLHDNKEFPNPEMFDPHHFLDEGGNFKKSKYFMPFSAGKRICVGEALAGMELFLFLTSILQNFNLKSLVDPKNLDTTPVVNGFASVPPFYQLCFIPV

Which results are given for O=C(O)CCCc1ccccc1 [PB, sodium phenylbutyrate]?
% Remaining of TA (n = 3) Average ([1]; 0 h): 100%; % Remaining of TA (n = 3) Average ([1]; 5 min): 103%; % Remaining of TA (n = 3) Average ([1]; 20 min): 98.5%; % Remaining of TA (n = 3) Average ([1]; 0.5 h): 99.6%; % Remaining of TA (n = 3) Average ([1]; 1 h): 97.6%; % Remaining of TA (n = 3) Average ([2]; 5 min): 109%; % Remaining of TA (n = 3) Average ([2]; 20 min): 113%; estimated [I]2 ([3]; Table 28): 64447 µM; projected unbound Cmax ([3]; Table 28): 148 µM; Plasma Cmax (total [I]1) [3]: 826 µM; [I]2 [3]: 64447 µM; projected unbound Iin,max ([3]; human): 326 µM; unbound [I]1 ([3]; human): 148 µM; Unbound Cmax (Unbound [I]1) [3]: 148 µM; Unbound [I]in, max [3]: 326 µM; IC50 [4]: 1790 to 5370 µM; IC50 [5]: 3630 to 10900 µM; IC50 [6]: > 73900 µM; Cmax [7]: 10200 ng/mL

With C[C@H](CCC(=O)NCCS(=O)(=O)O)[C@H]1CC[C@H]2[C@@H]3[C@@H](O)C[C@@H]4C[C@H](O)CC[C@]4(C)[C@H]3CC[C@]12C [TUDCA, tauroursodeoxycholic acid] as the compound, how does the “% Remaining of TA (n = 3) Average” value ([1]; 0 h) read?
The value was 100%.

What about the “% Remaining of TA (n = 3) Average” value ([1]; 5 min) of the same compound?
Its value is 102%.

And the “% Remaining of TA (n = 3) Average” value ([1]; 10 min)?
The value was 96.9%.

And the “% Remaining of TA (n = 3) Average” value ([1]; 20 min)?
Its value is 92.8%.

And the “% Remaining of TA (n = 3) Average” value ([1]; 0.5 h)?
The value was 95.0%.

And the “% Remaining of TA (n = 3) Average” value ([1]; 1 h)?
Its value is 95.3%.

What about the “% Remaining of TA (n = 3) Average” value ([2]; 0 h) of the same compound?
The value was 100%.

What about the “estimated [I]2” value ([3]; Table 28) of the same compound?
The value was 8005 µM.

What about the “projected unbound Cmax” value ([3]; Table 28) of the same compound?
The value was 1.62 µM.

And the “unbound [I]1” value ([3]; Table 28)?
The value was 1.62 µM.

What about the “Plasma Cmax (total [I]1)” value [3] of the same compound?
Its value is 108 µM.

What about the “[I]2” value [3] of the same compound?
Its value is 8005 µM.

And the “projected unbound Iin,max” value ([3]; oral administration, Table 28)?
The value was 3.48 µM.

And the “Unbound Cmax (Unbound [I]1)” value [3]?
Its value is 1.62 µM.

What about the “Unbound [I]in, max” value [3] of the same compound?
Its value is 3.48 µM.

And the IC50 [4]?
Its IC50 is 222 to 667 µM.

And the Papp A→B at 1.62 µM [8, 10]?
The Papp A→B at 1.62 µM was 9.59 ×10⁻⁶ cm/s.

And the Papp A→B at 81 µM [8, 10]?
Its Papp A→B at 81 µM is 5.84 ×10⁻⁶ cm/s.

What about the Papp A→B at […] [8, 10] of the same compound?
Its Papp A→B at […] is 7.47 ×10⁻⁶ cm/s.

And the recovery at 1.62 μM [8, 11]?
The recovery at 1.62 μM was 78.5%.

And the recovery at 16.2 μM [8, 11]?
The recovery at 16.2 μM was 71.6%.

What about the recovery at 81 μM [8, 11] of the same compound?
Its recovery at 81 μM is 101%.

What about the Papp B→A at 1.62 µM [8, 12] of the same compound?
Its Papp B→A at 1.62 µM is 1.75 ×10⁻⁶ cm/s.

And the Papp B→A at 16.2 µM [8, 12]?
Its Papp B→A at 16.2 µM is 0.553 ×10⁻⁶ cm/s.

What about the Papp B→A at 81 µM [8, 12] of the same compound?
The Papp B→A at 81 µM was 2.66 ×10⁻⁶ cm/s.

And the Papp B→A at […] [8, 12]?
Its Papp B→A at […] is 1.94 ×10⁻⁶ cm/s.

What about the recovery at 1.62 μM [8, 13] of the same compound?
Its recovery at 1.62 μM is 79.5%.

What about the recovery at 16.2 μM [8, 13] of the same compound?
Its recovery at 16.2 μM is 76.1%.

What about the recovery at 81 μM [8, 13] of the same compound?
Its recovery at 81 μM is 101%.

What about the “% Remaining of TA” value ([9]; 0 min) of the same compound?
The value was 100%.

What about the “% Remaining of TA” value ([9]; 5 min) of the same compound?
The value was 99.4%.

And the “% Remaining of TA” value ([9]; 10 min)?
The value was 97.9%.

What about the “% Remaining of TA” value ([9]; 20 min) of the same compound?
Its value is 95.9%.

And the “% Remaining of TA” value ([9]; 30 min)?
The value was 93.7%.

What about the IC50 [5] of the same compound?
The IC50 was 38.7 to 116 µM.

What about the IC50 [6] of the same compound?
Its IC50 is > 810 µM.

What about the Tmax ([7]; individual Tmax) of the same compound?
The Tmax was 1 to 2 h.

And the Cmax [7]?
Its Cmax is 298 ng/mL.

— US20230277630A1, “METHODS AND COMPOSITIONS FOR TREATING AMYOTROPHIC LATERAL SCLEROSIS” (Amylyx Pharmaceuticals, Inc., priority 2022, published 2023)
